From patent publication US12459951B2, “Compounds that interact with RAS superfamily proteins for treatment of cancers, inflammatory diseases, rasopathies, and fibrotic disease” (SHY Therapeutics, LLC, priority 2022, dated 2025)

Columns and labels:
PUMA expression = experiment: Cell-based Puma expression assay (western blot); parameters: species or system human
Description: Biological Example 4: Puma Expression and Caspases Activation Assay
Protocols for Cell-Based Puma Expression and Caspase Activation Assays
Cell lines: All human tumor-derived cancer cell lines were purchased from American Type Culture Collection. Human tumor-derived cancer cell lines Panc-1 (expressing KRas G12D mutant), MiaPaca-2 (expressing KRas G12C mutant), A549 (expressing KRas G12S mutant), and A375 (expressing wild type KRas) were grown in complete DMEM-High Glucose medium and NCI-H1975 (expressing wild type KRas), MM.1R (expressing wild type KRas) and IM.9 (expressing wild type KRas) were grown in RPMI1640 medium. Human tumor-derived cancer cell line BT-549 (expressing wild type KRas) was grown in RPMI1640 medium with 11.8U insulin. All mediums were supplemented with penicillin (100 U/mL), streptomycin (100 μg/mL), and 10% heat-inactivated FBS at 37° C. in a humidified incubator with 5% CO2.
Method: Cells were plated at 300,000 to 800,000 cells/well density in a 6-well plate in the presence of 10% FBS. The next day small molecules to be tested were added to the cells in the final concentration of 3 μM in the presence of 0.3% DMSO for 48 hours incubation at 37° C. For IC50 value determination, serial dilutions of compounds were added to cells under the same conditions. Following 48 hours of incubation cells were lysed with lysis buffer containing 1% Triton X-100, EDTA, and Halt™ Protease & Phosphatase Inhibitor Cocktail (Thermo Scientific). Protein concentration was assessed by BCA protein assay (Thermo Scientific). Increase expression of PUMA and active/cleaved forms of caspase 3, caspase 6 and caspase 9 were detected by western blot.
Western blot protocol: Equal amounts of protein (15-50 μg) were separated by SDS-PAGE and transferred to nitrocellulose membranes (Invitrogen by Thermo Fisher Scientific). The membrane was stained with Ponceau S Stain (Boston BioProducts) to verify uniform protein loading. Membranes were blocked with 10% milk and expression levels of PUMA was assessed by incubating overnight at 4° C. with the antibody PUMA (D30C10) from Cell Signaling Technology (#12450) and active/cleaved forms of caspase 3, caspase 6 and caspase 9 by incubating overnight at 4° C. with the following antibodies: cleaved caspase-3 (Asp175) (5A1E), cleaved caspase-6 (Asp162) and cleaved caspase-9 (Asp330) (D2D4) (all antibodies from Cell Signaling Technology). Then the membranes were incubated with HRP-conjugated secondary antibody (Jackson Immunoresearch, West Grove, PA). Bands were incubated in Amersham ECL Prime Western Blotting Detection Reagent (GE Healthcare) and visualized using the ChemiDoc MP imaging system (Bio-Rad).

[1] = system: NCI-H358 (expressing KRas G12C mutant) tumors; experiment: In vivo efficacy in NCI-H358 (G12C) model; parameters: species or system Athymic Nude-Foxn1 nu mice; settings: daily dose 50 mg/kg
Description: Biological Example 8: In Vivo Efficacy of Compound 6 in NCI-H358 (G12C) Model
Cell lines: Human tumor-derived non-small cell lung cancer cell lines NCI-H358 (expressing KRas G12C mutant was grown in RPMI-1640 Medium, ATCC 30-2001, supplemented with 10% fetal bovine serum (FBS) and Penicillin/Streptomycin 100U/ml (Lonza BioWhittaker, Morrisville, NC). Cells were trypsinized, washed in sterile PBS, counted, and resuspended in a 1:1 mix PBS/HC Matrigel (Corning, Glendale, AZ) at a concentration of 25×10^6/ml. Cells were kept on ice until injection.
The right flank of Athymic Nude-Foxn1 nu mice (The Jackson Laboratory, Harbor, ME) was injected subcutaneously with 5×10^6 cells in 200 μl of sterile PBS/Matrigel solution. Tumor mass was first measured 4 days after injection and mice were randomized on the basis of these measurements. Treatment was begun when tumors reached 150-200 mm^3, ^˜5-8 days after injection. Compound 6 was formulated in 20% captisol (50 mM citrate buffer, PH 5.0), and mice received either daily dose of vehicle or 50 mg/kg body weight of the formulated compound 6. Tumors were measured using digital calipers and volume (v) was calculated using the formula V=(W(2)×L)/2 where V is tumor volume, W is tumor width, and L is tumor length. Mice were housed in accordance with IACUC guidelines. The calculated Tumor Growth Inhibition (TGI) was 80%.

Weight loss ([1]; NCI-H358 tumor-bearing nude mice)	Structure (SMILES)	Increased PUMA expression (PUMA expression; A549, after 48 hours)	Increased PUMA expression (PUMA expression; BT-549, after 48 hours)	Increased PUMA expression (PUMA expression; MiaPaca2, after 48 hours)	Tumor Growth Inhibition (TGI) ([1]; NCI-H358 subcutaneous tumors in nude mice, 20% captisol formulation) [%]	Increased PUMA expression (PUMA expression; HCC1806, after 48 hours)	Increased PUMA expression (PUMA expression; NCI-H358, after 48 hours)
No weight loss was detected	COc1cc(Nc2nc(-c3nccn3C)nn3cc(-c4ccn(C(C)C)n4)c(C)c23)ncn1 [Compound 6, 6-(1-Isopropyl-1H-pyrazol-3-yl)-N-(6-methoxypyrimidin-4-yl)-5-methyl-2-(1-methyl-1H-imidazol-2-yl)pyrrolo[2,1-f][1,2,4]triazin-4-amine]	yes	yes	yes	80		
	COc1ccnc(Nc2nc(-c3nccn3C)nn3cc(-c4ccn(C)n4)c(C)c23)c1 [Compound 102, N-(4-Methoxypyridin-2-yl)-5-methyl-2-(1-methyl-1H-imidazol-2-yl)-6-(1-methyl-1H-pyrazol-3-yl)pyrrolo[2,1-f][1,2,4]triazin-4-amine]	yes		yes			
	Cc1c(-c2ccn(C)n2)cn2nc(-c3nccn3C)nc(Nc3cc4n(n3)CCO4)c12 [Compound 124, N-(5-Methyl-2-(1-methyl-1H-imidazol-2-yl)-6-(1-methyl-1H-pyrazol-3-yl)pyrrolo[2,1-f][1,2,4]triazin-4-yl)-2,3-dihydropyrazolo[5,1-b]oxazol-6-amine]			yes		yes	yes
